According to paper PMC2946321 (Bioorganic & medicinal chemistry, 2010):

Columns and labels:
human D3 = human D3 (Homo sapiens, UniProt P35462); assay: Competitive radioligand binding, 125I-IABN, D3 dopamine receptors; conditions: read-out: Ki D3
sigma-2 (σ2) receptors = biological target: T1, sigma-2 (σ2) receptors (Rattus norvegicus, UniProt Q5U3Y7); assay: Sigma-2 receptor binding, rat liver membranes; conditions: read-out: Ki σ2
T1 sequence (Q5U3Y7 1-176): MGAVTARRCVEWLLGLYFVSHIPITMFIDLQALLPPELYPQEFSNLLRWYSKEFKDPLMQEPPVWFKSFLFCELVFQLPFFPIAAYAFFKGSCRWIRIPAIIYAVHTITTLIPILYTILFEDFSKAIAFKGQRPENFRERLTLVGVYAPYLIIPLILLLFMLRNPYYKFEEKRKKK

human D2(long) [1] = biological target: T2, human D2(long) (Homo sapiens, UniProt P14416); assay: Competitive radioligand binding, 125I-IABN, D2 dopamine receptors
T2 sequence (P14416 whole entry): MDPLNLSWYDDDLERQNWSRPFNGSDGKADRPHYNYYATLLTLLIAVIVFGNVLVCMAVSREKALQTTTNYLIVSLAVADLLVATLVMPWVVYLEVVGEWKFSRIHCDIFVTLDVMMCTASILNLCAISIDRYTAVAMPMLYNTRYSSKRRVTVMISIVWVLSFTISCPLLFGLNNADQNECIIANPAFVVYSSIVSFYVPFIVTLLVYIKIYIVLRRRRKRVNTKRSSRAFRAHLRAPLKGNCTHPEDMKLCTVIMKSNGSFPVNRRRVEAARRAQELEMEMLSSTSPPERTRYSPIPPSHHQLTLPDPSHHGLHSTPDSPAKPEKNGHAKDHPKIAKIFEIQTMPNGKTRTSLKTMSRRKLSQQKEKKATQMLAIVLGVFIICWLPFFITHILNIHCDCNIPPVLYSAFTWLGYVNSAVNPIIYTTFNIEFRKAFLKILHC

sigma-1 (σ1) receptors = sigma-1 (σ1) receptors (Cavia porcellus, UniProt Q60492); assay: Sigma-1 receptor binding, [3H]; set-up: species or system guinea pig; conditions: read-out: Ki σ1
Sequence of sigma-1 (σ1) receptors (Q60492 whole entry): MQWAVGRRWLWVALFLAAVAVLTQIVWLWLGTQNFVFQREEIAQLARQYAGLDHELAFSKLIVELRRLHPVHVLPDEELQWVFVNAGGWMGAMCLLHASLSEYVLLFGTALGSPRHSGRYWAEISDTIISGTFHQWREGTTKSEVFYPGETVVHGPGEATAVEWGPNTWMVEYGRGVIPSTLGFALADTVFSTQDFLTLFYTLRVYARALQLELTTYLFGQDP

human D2(long) [2] = biological target: T2, human D2(long); assay: Forskolin-dependent whole cell adenylyl cyclase inhibition assay; type: cell-based; conditions: for effect on quinpirole inhibition of adenylyl cyclase: 10 nM test drug in presence of 10 nM quinpirole; for inhibition of forskolin-dependent cAMP accumulation: 10 nM, human D2long in HEK 293 cells, n = 4; for intrinsic efficacy category at D2 dopamine receptors: based on adenylyl cyclase assay

Sequence of human D3 (P35462 whole entry): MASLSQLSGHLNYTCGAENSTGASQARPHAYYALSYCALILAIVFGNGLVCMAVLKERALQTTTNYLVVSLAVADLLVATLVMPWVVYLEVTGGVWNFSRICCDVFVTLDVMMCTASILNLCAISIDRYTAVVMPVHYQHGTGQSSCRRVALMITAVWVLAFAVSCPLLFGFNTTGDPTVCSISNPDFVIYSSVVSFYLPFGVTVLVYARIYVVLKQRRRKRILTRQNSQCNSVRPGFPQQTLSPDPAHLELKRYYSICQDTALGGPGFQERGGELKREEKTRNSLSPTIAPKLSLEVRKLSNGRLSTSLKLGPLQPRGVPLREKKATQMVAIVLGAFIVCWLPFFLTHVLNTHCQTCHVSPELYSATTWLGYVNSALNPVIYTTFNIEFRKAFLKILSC

1-(Benzo[b]thiophen-2-ylmethyl)-4-(4-bromophenyl)piperidin-4-ol oxalate [Compound 20]
Ki (human D3): 142 ± 27 nM | Ki (sigma-2 (σ2) receptors): 1960 ± 177 nM | D3:D2 (Ki for D3 receptors/Ki for D2 receptors) (human D2(long) [1]): 3.0 | Ki (human D2(long) [1]; read-out: Ki D2): 46.8 ± 3 nM | Ki (sigma-1 (σ1) receptors): 2.13 ± 0.44 nM

COc1ccc2[nH]cc(CN3CCC(O)(c4ccc(I)cc4)CC3)c2c1.O=C(O)C(=O)O [Compound 7, 4-(4-Iodophenyl)-1-((5-methoxy-1H-indol-3-yl)methyl)piperidin-4-ol oxalate]
effect on quinpirole inhibition of adenylyl cyclase (human D2(long) [2]): able to attenuate the effect of quinpirole | inhibition of forskolin-dependent cAMP accumulation (human D2(long) [2]): no appreciable increase or decrease | intrinsic efficacy category at D2 dopamine receptors (human D2(long) [2]): neutral antagonists

CN1CN(c2ccccc2)C2(CCN(Cc3coc4ccccc34)CC2)C1=O.O=C(O)C(=O)O [Compound 25, 8-(Benzofuran-3-ylmethyl)-3-methyl-1-phenyl-1,3,8-triazaspiro[4.5]decan-4-one oxalate]
D3:D2 (Ki for D3 receptors/Ki for D2 receptors) (human D2(long) [1]): 0.3

COc1cccc2[nH]cc(CN3CCC(O)(c4ccc(I)cc4)CC3)c12.O=C(O)C(=O)O [Compound 6, 4-(4-Iodophenyl)-1-((4-methoxy-1H-indol-3-yl)methyl)piperidin-4-ol oxalate]
effect on quinpirole inhibition of adenylyl cyclase (human D2(long) [2]): able to attenuate the effect of quinpirole | inhibition of forskolin-dependent cAMP accumulation (human D2(long) [2]): no appreciable increase or decrease | intrinsic efficacy category at D2 dopamine receptors (human D2(long) [2]): neutral antagonists
